Source: patent publication US5110800A, “Derivatives of erythromycylamine” (Eli Lilly and Company, priority 1989, dated 1992)
Values after ≈ are worked out from the molar mass of the structure shown. Read-outs that look alike come from different tables or passages of the source.

Tests used:
Assay in all cases: MIC, standard agar-dilution assay
Assay type in all cases: cell-based
[1] = system: Staphylococcus aureus S13E; conditions: Staphylococcus aureus, S13E, read-out: minimal inhibitory concentration (MIC)
[2] = system: Staphylococcus epidermidis 222
[3] = system: Haemophilus influenzae 76; conditions: Haemophilus influenzae, 76; Table IV; ampicillin-resistant strain; read-out: minimal inhibitory concentration (MIC)
[4] = system: Klebsiella pneumoniae X68; conditions: Klebsiella pneumoniae
[5] = system: Streptococcus sp. group D X66; conditions: Streptococcus, read-out: minimal inhibitory concentration (MIC)
[6] = system: Staphylococcus aureus X400; conditions: Staphylococcus aureus
Text: (§1) In addition to excellent in vitro activity against erythromycin-sensitive bacteria, several members of this new series have shown in vitro activity against erythromycin-resistant strains. These include strains which are inducibly-resistant to erythromycin (S. aureus V41 and X400 and S. epidermidis EPI1) and even strains which are constitutively-resistant (S. epidermidis 270).

[7] = system: Staphylococcus epidermidis 270
Text: as §1

[8] = system: Staphylococcus aureus V41; conditions: Staphylococcus aureus
Text: as §1

[9] = system: Streptococcus pyogenes C203; conditions: Streptococcus pyogenes
Escherichia coli EC14 = conditions: Escherichia coli
[10] = system: Haemophilus influenzae C.L.; conditions: Haemophilus influenzae, read-out: minimal inhibitory concentration (MIC)
[11] = system: Streptococcus sp. group D 2041; conditions: Streptococcus, read-out: minimal inhibitory concentration (MIC)
[12] = system: Staphylococcus aureus X1.1; conditions: Staphylococcus aureus, X1.1, read-out: minimal inhibitory concentration (MIC)
[13] = system: Streptococcus pneumoniae Park I; conditions: Streptococcus pneumoniae, read-out: minimal inhibitory concentration (MIC)
[14] = system: Staphylococcus epidermidis EPI1; conditions: EPI1, read-out: minimal inhibitory concentration (MIC)
Text: as §1

[15] = Staphylococcus epidermidis, 222, read-out: minimal inhibitory concentration (MIC)
[16] = X68, read-out: minimal inhibitory concentration (MIC)
[17] = C203, read-out: minimal inhibitory concentration (MIC)
[18] = EC14, Table IV, agar dilution, read-out: minimal inhibitory concentration (MIC)
[19] = X68, Table IV, agar dilution, read-out: minimal inhibitory concentration (MIC)
[20] = X400, Table IV, methicillin-resistant strain, inducibly erythromycin-resistant, read-out: minimal inhibitory concentration (MIC)
[21] = Staphylococcus epidermidis, 270, Table IV, constitutively erythromycin-resistant, read-out: minimal inhibitory concentration (MIC)
[22] = V41, Table IV, penicillin-resistant strain, inducibly erythromycin-resistant, read-out: minimal inhibitory concentration (MIC)
[23] = Table IV, ampicillin-sensitive strain
[24] = EC14, read-out: minimal inhibitory concentration (MIC)
[25] = X68, Table V, agar dilution, read-out: minimal inhibitory concentration (MIC)

Compound	MIC [1] [µg/mL]	MIC [2, 15] [µg/mL]	MIC [3] [µg/mL]	MIC [4, 16] [µg/mL]	MIC [5] [µg/mL]	MIC [9, 17] [µg/mL]	MIC (Escherichia coli EC14; [18]) [µg/mL]	MIC [10] [µg/mL]	MIC ([11]; Table IV, agar dilution) [µg/mL]	MIC [12] [µg/mL]	MIC [4, 19] [µg/mL]	MIC [6, 20] [µg/mL]	MIC [7, 21] [µg/mL]	MIC [8, 22] [µg/mL]	MIC [10, 23] [µg/mL]	MIC [11] [µg/mL]	MIC (Escherichia coli EC14; [24]) [µg/mL]	MIC [13] [µg/mL]	MIC [14] [µg/mL]	other results
CC[C@H]1OC(=O)[C@H](C)[C@@H](O[C@H]2C[C@@](C)(OC)[C@@H](O)[C@H](C)O2)[C@H](C)[C@@H](O[C@@H]2O[C@H](C)C[C@H](N(C)C)[C@H]2O)[C@](C)(O)C[C@@H](C)[C@H](NCCCC#N)[C@H](C)[C@@H](O)[C@]1(C)O [Compound 29, 9-Deoxo-9-[(3-cyanopropyl)amino]erythromycin]	128 (≈ 160 µM)	1 (≈ 1.25 µM)	4 (≈ 4.99 µM)	128 (≈ 160 µM)	0.125 (≈ 0.156 µM)	1 (≈ 1.25 µM)	64 (≈ 79.8 µM)	2 (≈ 2.49 µM)	4 (≈ 4.99 µM)	1 (≈ 1.25 µM)										MIC ([6]; X400, read-out: minimal inhibitory concentration (MIC)): > 128 µg/mL; MIC ([7]; Staphylococcus epidermidis, 270, read-out: minimal inhibitory concentration (MIC)): > 128 µg/mL; MIC ([8]; V41, read-out: minimal inhibitory concentration (MIC)): > 128 µg/mL
CC[C@H]1OC(=O)[C@H](C)[C@@H](O[C@H]2C[C@@](C)(OC)[C@@H](O)[C@H](C)O2)[C@H](C)[C@@H](O[C@@H]2O[C@H](C)C[C@H](N(C)C)[C@H]2O)[C@](C)(O)C[C@@H](C)[C@H](NCCC2=C(C)CCCC2(C)C)[C@H](C)[C@@H](O)[C@]1(C)O [Compound 30, 9-Deoxo-9-[[2-(2,6,6-trimethyl-1-cyclohexen-1-yl)ethyl]amino]erythromycin]	2 (≈ 2.26 µM)	1 (≈ 1.13 µM)	4 (≈ 4.52 µM)		0.125 (≈ 0.141 µM)	0.5 (≈ 0.565 µM)	> 128			1 (≈ 1.13 µM)	> 128	32 (≈ 36.1 µM)	64 (≈ 72.3 µM)	16 (≈ 18.1 µM)	4 (≈ 4.52 µM)	2 (≈ 2.26 µM)				
CC[C@H]1OC(=O)[C@H](C)[C@@H](O[C@H]2C[C@@](C)(OC)[C@@H](O)[C@H](C)O2)[C@H](C)[C@@H](O[C@@H]2O[C@H](C)C[C@H](N(C)C)[C@H]2O)[C@](C)(O)C[C@@H](C)[C@H](NCCOC)[C@H](C)[C@@H](O)[C@]1(C)O [Compound 31, 9-Deoxo-9-[(2-Methoxyethyl)amino]erythromycin]	0.5 (≈ 0.63 µM)		2 (≈ 2.52 µM)			0.06 (≈ 0.0757 µM)		0.5 (≈ 0.63 µM)		0.5 (≈ 0.63 µM)	32 (≈ 40.4 µM)	> 128	> 128	> 128		8 (≈ 10.1 µM)	16 (≈ 20.2 µM)			MIC ([2]; Staphylococcus epidermidis, 222, Table IV, agar dilution, read-out: minimal inhibitory concentration (MIC)): 0.25 µg/mL (≈ 0.315 µM); MIC ([5]; Table IV, agar dilution): 0.125 µg/mL (≈ 0.158 µM); MIC ([13]; Table IV, agar dilution): 0.03 µg/mL (≈ 0.0378 µM)
CCCN[C@@H]1[C@H](C)[C@@H](O)[C@@H](C)[C@@H](CC)OC(=O)[C@H](C)[C@@H](O[C@H]2C[C@@](C)(OC)[C@@H](O)[C@H](C)O2)[C@H](C)[C@@H](O[C@@H]2O[C@H](C)C[C@H](N(C)C)[C@H]2O)[C@](C)(O)C[C@H]1C [Compound 38]	1 (≈ 1.31 µM)	0.5 (≈ 0.657 µM)	4 (≈ 5.26 µM)	128 (≈ 168 µM)	0.125 (≈ 0.164 µM)	0.125 (≈ 0.164 µM)	64 (≈ 84.1 µM)	2 (≈ 2.63 µM)		0.5 (≈ 0.657 µM)		64 (≈ 84.1 µM)	> 128	8 (≈ 10.5 µM)		2 (≈ 2.63 µM)		0.125 (≈ 0.164 µM)		
CCCCCCCCCCN[C@@H]1[C@H](C)[C@@H](O)[C@@H](C)[C@@H](CC)OC(=O)[C@H](C)[C@@H](O[C@H]2C[C@@](C)(OC)[C@@H](O)[C@H](C)O2)[C@H](C)[C@@H](O[C@@H]2O[C@H](C)C[C@H](N(C)C)[C@H]2O)[C@](C)(O)C[C@H]1C [Compound 41]	1 (≈ 1.16 µM)	0.5 (≈ 0.582 µM)	4 (≈ 4.66 µM)		0.5 (≈ 0.582 µM)		> 128		4 (≈ 4.66 µM)	2 (≈ 2.33 µM)	> 128	4 (≈ 4.66 µM)	8 (≈ 9.31 µM)	4 (≈ 4.66 µM)	8 (≈ 9.31 µM)					MIC ([9]; C203, Table IV, agar dilution, read-out: minimal inhibitory concentration (MIC)): 0.03 µg/mL (≈ 0.0349 µM); MIC ([13]; Table IV, agar dilution): 0.03 µg/mL (≈ 0.0349 µM)
CC[C@H]1OC(=O)[C@H](C)[C@@H](O[C@H]2C[C@@](C)(OC)[C@@H](O)[C@H](C)O2)[C@H](C)[C@@H](O[C@@H]2O[C@H](C)C[C@H](N(C)C)[C@H]2O)[C@](C)(O)C[C@@H](C)[C@H](NCCOCCOC)[C@H](C)[C@@H](O)[C@H]1C [Compound 49]	0.5 (≈ 0.609 µM)	1 (≈ 1.22 µM)	8 (≈ 9.74 µM)	128 (≈ 156 µM)	0.25 (≈ 0.304 µM)	0.015 (≈ 0.0183 µM)			4 (≈ 4.87 µM)	1 (≈ 1.22 µM)		> 128	> 128	128 (≈ 156 µM)	4 (≈ 4.87 µM)		128 (≈ 156 µM)	0.015 (≈ 0.0183 µM)		
CCCN1CO[C@@H]2[C@@H](C)[C@@H]1[C@H](C)C[C@@](C)(O)[C@H](O[C@@H]1O[C@H](C)C[C@H](N(C)C)[C@H]1O)[C@@H](C)[C@H](O[C@H]1C[C@@](C)(OC)[C@@H](O)[C@H](C)O1)[C@@H](C)C(=O)O[C@H](CC)[C@@]2(C)O [Compound 59]		0.125 (≈ 0.158 µM)			0.125 (≈ 0.158 µM)														> 128	
CC[C@H]1OC(=O)[C@H](C)[C@@H](O[C@H]2C[C@@](C)(OC)[C@@H](O)[C@H](C)O2)[C@H](C)[C@@H](O[C@@H]2O[C@H](C)C[C@H](N(C)C)[C@H]2O)[C@](C)(O)C[C@@H](C)[C@H](N(C)C)[C@H](C)[C@@H](O)[C@]1(C)O [Compound 69, 9-Deoxo-9-(dimethylamino)erythromycin]		2 (≈ 2.62 µM)			0.5 (≈ 0.655 µM)	0.25 (≈ 0.328 µM)		2 (≈ 2.62 µM)									128 (≈ 168 µM)		> 128	MIC [4, 25]: > 128 µg/mL
CC[C@H]1OC(=O)[C@H](C)[C@@H](O[C@H]2C[C@@](C)(OC)[C@@H](O)[C@H](C)O2)[C@H](C)[C@@H](O[C@@H]2O[C@H](C)C[C@H](N(C)C)[C@H]2O)[C@](C)(O)C[C@@H](C)[C@H](N(C)C(C)C)[C@H](C)[C@@H](O)[C@]1(C)O [Compound 70, 9-Deoxo-9-[(N-methyl-N-isopropyl)amino]erythromycin]		8 (≈ 10.1 µM)			2 (≈ 2.53 µM)	0.5 (≈ 0.632 µM)				8 (≈ 10.1 µM)								0.5 (≈ 0.632 µM)	> 128	MIC [4, 25]: > 128 µg/mL; MIC ([6]; X400, Table V, methicillin-resistant strain, inducibly erythromycin-resistant, read-out: minimal inhibitory concentration (MIC)): > 128 µg/mL; MIC ([8]; V41, Table V, penicillin-resistant strain, inducibly erythromycin-resistant, read-out: minimal inhibitory concentration (MIC)): > 128 µg/mL; MIC (Escherichia coli EC14; EC14, Table V, agar dilution, read-out: minimal inhibitory concentration (MIC)): > 128 µg/mL
